Test results as given in patent publication US20150291598A1 (NOVARTIS AG, priority 2012, published 2015).
Like-named read-outs stand apart in the source and are kept apart here.

Test system: P. falciparum (NF54 or 3D7 strain)
Test: Assay for P. falciparum proliferation in infected human blood cells (SYBR Green)
Format: cell-based, Plasmodium falciparum
Settings: NF54 or 3D7 infected human erythrocytes, 72 hours, read-out: EC50 (nM), inhibitory efficacy in delaying P. falciparum proliferation in infected human blood cells
Method in brief: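 NF54 or 3D7 parasites in O+ human erythrocytes at 2.5% hematocrit and 0.3% parasitemia final, exposed to compounds 72 h at 37 °C under 93% N2/4% CO2/3% O2.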

[1] = Plasmodium falciparum, Erythrocyte, 72 h

Structure (SMILES)	EC50 [1]	further results
Cc1ccc(N(C)Cc2cn3c(-c4ccc5c(cnn5C)c4)cnc3cn2)nc1 [Compound 45, N,5-dimethyl-N-{[3-(1-methyl-1H-indazol-5-yl)imidazo[1,2-a]pyrazin-6-yl]methyl}pyridin-2-amine]	178 nM	–
CN(C(=O)c1cn2c(-c3ccc(C(F)(F)F)c(F)c3)cnc2cn1)c1ccc(C#N)cc1 [Compound 169, N-(4-cyanophenyl)-3-[3-fluoro-4-(trifluoromethyl)phenyl]-N-methylimidazo[1,2-a]pyrazine-6-carbox]	497 nM	–
COc1ccc(-c2cnc3cnc(C(=O)N(C)c4ccc(C#N)cc4)cn23)c(C)c1 [Compound 441, N-(4-cyanophenyl)-3-(4-methoxy-2-methylphenyl)-N-methylimidazo[1,2-a]pyrazine-6-carboxamide]	6500 nM	–
CC1(C)CCc2cc(F)ccc2N1C(=O)c1cn2c(-c3ccc(C(F)(F)F)cc3)cnc2cn1 [Compound 230, 6-fluoro-2,2-dimethyl-1-({3-[4-(trifluoromethyl)phenyl]imidazo[1,2-a]pyrazin-6-yl}carbonyl)-1,2,3,4-tetrahydroquinoline]	21 nM	–
CN(C(=O)c1cn2c(-c3ccc(N)cc3)cnc2cn1)c1ccc(C#N)cc1 [Compound 124, 3-(4-aminophenyl)-N-(4-cyanophenyl)-N-methylimidazo[1,2-a]pyrazine-6-carboxamide]	217 nM	–
CCOC(=O)c1cnc2cnc(C(=O)N(C)c3ccc(Cl)nc3)cn12 [Compound 253, ethyl 6-[(6-chloropyridin-3-yl)(methyl)carbamoyl]imidazo[1,2-a]pyrazine-3-carboxylate]	2460 nM	–
CN(C(=O)c1cn2c(-c3ccc4c(cnn4C)c3)cnc2cn1)c1ccc(F)cc1 [Compound 106, N-(4-fluorophenyl)-N-methyl-3-(1-methyl-1H-indazol-5-yl)imidazo[1,2-a]pyrazine-6-carboxamide]	–	EC50: 24 nM
COc1ncc(N(C)C(=O)c2cn3c(-c4ccc(C(F)(F)F)cc4)cnc3cn2)cn1 [Compound 399, N-(2-methoxypyrimidin-5-yl)-N-methyl-3-[4-(trifluoromethyl)phenyl]imidazo[1,2-a]pyrazine-6-carboxamide]	6980 nM	–
COc1ccc(-c2cnc3cnc(C(=O)N(C)c4ccc(C#N)cc4)cn23)cn1 [Compound 90, N-(4-cyanophenyl)-3-(6-methoxypyridin-3-yl)-N-methylimidazo[1,2-a]pyrazine-6-carboxamide]	826 nM	–
CN(C(=O)c1cn2c(-c3ccc4c(=O)[nH]ccc4c3)cnc2cn1)c1ccc(C#N)cc1 [Compound 168, N-(4-cyanophenyl)-N-methyl-3-(1-oxo-1,2-dihydroisoquinolin-6-yl)imidazo[1,2-a]pyrazine-6-carboxamide]	558 nM	–
CN(C(=O)c1cn2c(-c3ccc(C(F)(F)F)cc3F)cnc2cn1)c1ccc(C#N)cc1 [Compound 140, N-(4-cyanophenyl)-3-[2-fluoro-4-(trifluoromethyl)phenyl]-N-methylimidazo[1,2-a]pyrazine-6-carboxamide]	436 nM	–
CN(C(=O)c1cn2c(-c3ccc(C(F)(F)F)cc3)cnc2cn1)c1ccc(S(C)(=O)=O)cc1 [Compound 501, N-(4-methanesulfonylphenyl)-N-methyl-3-[4-(trifluoromethyl)phenyl]imidazo[1,2-a]pyrazine-6-carboxamide]	1450 nM	–
CN(C(=O)c1cn2c(-c3ccc(-c4nnco4)cc3)cnc2cn1)c1ccc(Cl)nc1 [Compound 410, N-(6-chloropyridin-3-yl)-N-methyl-3-[4-(1,3,4-oxadiazol-2-yl)phenyl]imidazo[1,2-a]pyrazine-6-carboxamide]	> 10000 nM	–
CNc1nnc(-c2ccc(-c3cnc4cnc(C(=O)N(C)c5ccc(C#N)cc5)cn34)cc2)s1 [Compound 476, N-(4-cyanophenyl)-N-methyl-3-{4-[5-(methylamino)-1,3,4-thiadiazol-2-yl]phenyl}imidazo[1,2-a]pyrazine-6-carboxamide]	9 nM	–
CN(C(=O)c1cn2c(-c3ccc(C(F)(F)F)cc3)cnc2cn1)c1cnc(Cl)cn1 [Compound 91, -(5-chloropyrazin-2-yl)-N-methyl-3-[4-(trifluoromethyl)phenyl]imidazo[1,2-a]pyrazine-6-carboxamide]	4300 nM	–
CC(C)[C@@H](N)CC(=O)Nc1ccc(-c2cnc3cnc(C(=O)N(C)c4ccc(C#N)cc4)cn23)cc1 [Compound 256, 3-{4-[(3S)-3-amino-4-methylpentanamido]phenyl}-N-(4-cyanophenyl)-N-methylimidazo[1,2-a]pyrazine-6-carboxamide]	240 nM	–
NC(=O)C1CCCN(C(=O)c2cn3c(-c4ccc(C(F)(F)F)cc4)cnc3cn2)C1 (centres unmarked) [Compound 397, 1-({3-[4-(trifluoromethyl)phenyl]imidazo[1,2-a]pyrazin-6-yl}carbonyl)piperidine-3-carboxamide]	6550 nM	–
CN(C(=O)c1cn2c(-c3ccc(C(F)(F)F)cc3)cnc2cn1)c1ccc(F)nc1 [Compound 79, N-(6-fluoropyridin-3-yl)-N-methyl-3-[4-(trifluoromethyl)phenyl]imidazo[1,2-a]pyrazine-6-carboxamide]	214 nM	–
CN(C(=O)c1cn2c(-c3ccc(C(F)(F)F)cc3)cnc2cn1)c1ccc(Cl)cc1Cl [Compound 49, N-(2,4-dichlorophenyl)-N-methyl-3-[4-(trifluoromethyl)phenyl]imidazo[1,2-a]pyrazine-6-carboxamide]	314 nM	–
Cc1ccnc(N(C)C(=O)c2cn3c(-c4ccc(C(F)(F)F)cc4)cnc3cn2)c1 [Compound 328]	–	EC50 (Plasmodium falciparum, 3D7|NF54, Erythrocyte, in Homo sapiens, 72 h): 1090 nM
CN(C(=O)c1ccc(C(C)(C)C)cc1)c1cn2c(-c3ccc(C(F)(F)F)cc3)cnc2cn1 [Compound 417, 4-tert-butyl-N-methyl-N-{3-[4-(trifluoromethyl)phenyl]imidazo[1,2-a]pyrazin-6-yl}benzamide]	> 10000 nM	–
Cc1cc(N(C)C(=O)c2cn3c(-c4ccc(C(F)(F)F)cc4)cnc3cn2)ccc1Cl [Compound 56, N-(4-chloro-3-methylphenyl)-N-methyl-3-[4-(trifluoromethyl)phenyl]imidazo[1,2-a]pyrazine-6-carboxamide]	491 nM	–
CN(C(=O)c1cn2c(-c3ccc(NC(=O)C(N)C4CCC4)cc3)cnc2cn1)c1ccc(C#N)cc1 (centres unmarked) [Compound 270, 3-[4-(2-amino-2-cyclobutylacetamido)phenyl]-N-(4-cyanophenyl)-N-methylimidazo[1,2-a]pyrazine-6-carboxamide]	605 nM	–
CN(C(=O)c1cn2c(-c3ccc(C(F)(F)F)cc3)cnc2cn1)c1ccc(-c2nnn(C)n2)cc1 [Compound 68, N-methyl-N-[4-(2-methyl-2H-1,2,3,4-tetrazol-5-yl)phenyl]-3-[4-(trifluoromethyl)phenyl]imidazo[1,2-a]pyrazine-6-carboxamide]	> 10000 nM	–
CN(C(=O)c1cn2c(-c3ccc(C(F)(F)F)cc3)cnc2cn1)c1ccc(Cl)cn1 [Compound 435, N-(5-chloropyridin-2-yl)-N-methyl-3-[4-(trifluoromethyl)phenyl]imidazo[1,2-a]pyrazine-6-carboxamide]	214 nM	–
Cc1ccc(-c2cnc3cnc(C(=O)N(C)c4ccc(C#N)cc4)cn23)cc1 [Compound 113, N-(4-cyanophenyl)-N-methyl-3-(4-methylphenyl)imidazo[1,2-a]pyrazine-6-carboxamide]	81 nM	–
